For orientation: IC50 means the concentration needed to halve the response being measured. A low value points to greater potency.

In ChEMBL document CHEMBL1126544, “Synthesis and biological evaluation of MC 1357, a new 20-epi-23-oxa-1,25-dihydroxy-vitamin D3 analogue with potent non-classical effects” (Bioorg Med Chem Lett, 1993) one finds IC50, Ca2+ excretion and Concentration data, which are given here for 2 compounds.

In test [1] the test system is T-cell. Put plainly: Concentration to inhibit T-cell activation in Murine MLR. Particulars: Mus musculus. It counts as functional, cell-based.
The test system of test [2] is Rattus norvegicus. Put plainly: Compound was evaluated for calciuric effect (urinary calcium excretion in rats) at a dose of 0.5 ug/kg/day was administered orally for 7 days: Calcium excretion in control rats receiving vehicle alone of 20 umol/day. It counts as functional, Urine.
The test system of test [3] is U-937. Put plainly: Concentration to induce cell differentiation in U 937 cells. It counts as functional, cell-based. The following applies: Homo sapiens.
The test system of test [4] is U-937. In words: Concentration to inhibit cell proliferation in U 937 cells. It counts as functional, cell-based. The following applies: Homo sapiens.

In the case of `C=C1/C(=C\C=C2/CCC[C@]3(C)[C@@H]([C@H](C)CCCC(C)(C)O)CC[C@@H]23)C[C@@H](O)C[C@@H]1O` [CALCITRIOL], in test [1], the half-inhibitory concentration (IC50) worked out at 0.05 nM. Further, in test [2], the Ca2+ excretion amounted to 83 µmol/day. For the same compound, the Concentration in test [3] was 2 nM.
Take `C=C1/C(=C\C=C2/CCC[C@]3(C)[C@@H]([C@@H](C)COCCCC(C)(C)O)CC[C@@H]23)C[C@@H](O)C[C@@H]1O`: the half-inhibitory concentration (IC50) amounted to 0.0006 nM in test [1] and 0.01 nM in test [4]. Besides, the Ca2+ excretion in test [2] is 49 µmol/day. The compound also returned a Concentration in test [3] of 0.001 nM.
